Values joined by “and” are separate entries in the source; they are usually repeats but may differ in a detail not shown here. Equal entries are not always repeated.
System: 233499-124-R-J3-PDC complex spheroid growth
Experiment: Anticancer human tumor 233499-124-R-J3-PDC patient-derived colon adenocarcinoma cell line growth inhibition [AhR]
Conditions: for viability, T/C: stronger effect = lower value
From the text: Multicellular complex tumor spheroid response to aryl hydrocarbon receptor antagonists in combination with a variety of drugs and investigational agents in selected tumor cell lines
The current study was undertaken to assess response to aryl hydrocarbon receptor antagonists in combination with standard-of-care drugs and investigational agents in solid tumor complex spheroid models. Complex spheroids include a stromal component modeled by human endothelial cells (HUVEC) and fibroblasts modeled by human mesenchymal stem cells (MSCs). The concentration ranges selected for each drug and investigational agent were based upon clinically achievable concentrations if the clinical Cmax of the agent was known.
Compounds. The drugs and investigational agents: BAY 2416964 (NSC825713), GNF351 (NSC835774), CH-223191 (NSC835775), CPI-455 (NSC825282), aza-TdCyd (NSC777586), decitabine (NSC127716), belinostat (NSC758774), entinostat (NSC756642), pevonedistat (NSC761192), tazemetostat (NSC777109), talazoparib (NSC765396), olaparib (NSC753686), selinexor (NSC780203), nedisertib (M3814, NSC802822), bortezomib (NSC756655), venetoclax (NSC766270), doxorubicin (NSC123127), elimusertib (BAY189344, NSC800525), ceralasertib (AZD6738, NSC777638), TAK-243 (NSC785004), alisertib (NSC759677), etoposide (NSC141540), topotecan (NSC609699), eribulin (NSC707389), gemcitabine (NSC613327), carboplatin (NSC241240), cisplatin (NSC119875), and SN-38 (NSC673596) were obtained from the National Cancer Institute (NCI) Developmental Therapeutics Program Chemical Repository (32). The FDA-approved anticancer drug set is available from the Developmental Therapeutics Program at https://dtp.cancer.gov/organization/dscb/obtaining/available plates.htm. […] The stock solutions were prepared in dimethyl sulfoxide (DMSO, Sigma-Aldrich, St. Louis, MO, cat. D2650), except for the platinum compounds which were prepared in saline (Quality Biological, Gaithersburg, MD, cat. 114-055-101), at 800-fold the tested concentration and stored at -70 degrees C prior to their use. All drugs and investigational agents were tested over a range starting from a high concentration at or near the clinical Cmax and decreasing in half-log increments. If the clinical Cmax for an agent had not been determined, the highest concentration tested was 10 microM (Table 1).
Cell Culture. All cells were maintained in an incubator at 37 degrees C and 5% CO2 with 95% humidity. The PDC lines were cultured according to standard operating procedures established by the NCI PDMR (https://pdmr.cancer.gov). Briefly, all PDCs were thawed and cultured in Matrigel-coated flasks prepared with a working solution of 1X Ham's F-12 nutrient mix, without supplementation (Invitrogen, Waltham, MA, cat. 11765054), 100 U/mL penicillin-streptomycin (Invitrogen, cat. 15140122), and 2.5% Matrigel (Corning Inc., Corning, NY, cat. 354248) for the first three passages. All PDCs were cultured in complete DMEM/F-12 media containing advanced DMEM/F-12 (Invitrogen, cat. 12634028), 4.9% defined fetal bovine serum, heat inactivated (HyClone Laboratories Inc., Logan, UT, cat. SH30070.03HI), 389 ng/mL hydrocortisone (Sigma-Aldrich, cat. H4001), 9.7 ng/mL human EGF recombinant protein (Invitrogen, cat. PHG0313), 23.4 microg/mL adenine (Sigma-Aldrich, cat. A2786), 97.3 U/mL penicillin-streptomycin (Invitrogen, cat. 15140122), 1.9 mM L-glutamine (Invitrogen, cat. 25030081), and 9.7 microM Y-27632 dihydrochloride (Tocris Bioscience, Bristol, United Kingdom, cat. 1254). The PDCs were cultured in complete DMEM/F12 media without 10 microM Y-27632 dihydrochloride for at least two passages prior to the screen. The established cell lines NCI-H1341 and […] were cultured in DMEM/F-12, HEPES (Invitrogen, cat. 11330032), 5% defined fetal bovine serum (HyClone Laboratories Inc., cat. SH30070.03), ITS premix universal culture supplement [insulin (5 microg/mL), transferrin (5 microg/mL), and selenious acid (5 ng/mL)] […]
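Also: spheroids exposed to agents for seven days before reading.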

Row | SMILES | viability, T/C (compound 0.0316 µM) | viability, T/C (compound 0.1 µM) | viability, T/C (compound 0.316 µM) | viability, T/C (compound 1 µM) | viability, T/C (compound 3.16 µM) | viability, T/C (compound 10 µM) | IC50 (curve of compound) | further results
1 | COc1cccc2c1C(=O)c1c(O)c3c(c(O)c1C2=O)CC(O)(C(=O)CO)CC3OC1CC(N)C(O)C(C)O1 (stereo unspecified) | 98% and 91.4% and 90.8% | 85.2% and 85.3% and 89.7% | 90.2% and 92.3% and 93.3% | 97.9% and 97.3% and 87.4% | 66.9% and 78% and 60.5% | 60% and 71.6% and 40.6% | > 10 µM and 5.81 µM | 
2 | Cc1ccccc1N=Nc1ccc(NC(=O)c2ccnn2C)c(C)c1 |  | 102% [middle of 20 runs] |  |  |  | 97.8% [middle of 20 runs] |  | IC50 (compound alone, run of 07/26/2022): > 10 µM
3 | Cc1cncc(-c2nc(NCCc3c[nH]c4ccccc34)c3ncn(C(C)C)c3n2)c1 |  | 96.2% [middle of 20 runs] | 86.2% [middle of 19 runs] | 78.4% [middle of 20 runs] |  |  |  | IC50 (compound alone, run of 07/18/2022): 4.98 µM [middle of 23 runs]
4 | Cn1ncnc1C1c2n[nH]c(=O)c3cc(F)cc(c23)NC1c1ccc(F)cc1 (stereo unspecified) | 92.5% and 107% and 103% | 96.4% and 91.3% and 92.3% |  |  |  |  | > 0.1 µM | viability, T/C (compound 0.000316 µM): 97.9% and 96.7% and 93.9%; viability, T/C (compound 0.001 µM): 108% (2×) and 81%; viability, T/C (compound 0.00316 µM): 108% and 106% and 97.9%; viability, T/C (compound 0.01 µM): 102% and 109% and 99.2%
5 | NS(=O)(=O)OCC1CC(n2ccc3c(NC4CCc5ccccc54)ncnc32)CC1O (stereo unspecified) | 101% (2×) and 105% | 107% and 91.4% and 77.7% | 98.2% and 66% and 47.5% | 18.1% and 25.5% and 14% | 5.89% and 5.66% and 5.16% | 3% and 4.4% and 2.68% | 0.632 µM and 0.486 µM and 0.266 µM | 
6 | Nc1ccccc1NC(=O)c1ccc(CNC(=O)OCc2cccnc2)cc1 | 91.6% and 84.4% and 104% | 97.2% and 106% and 99.6% | 105% and 112% and 109% | 98% and 113% and 100% | 43.9% and 84.1% and 51.4% | 5.82% and 10.2% and 8.69% | 2.78 µM and 5.37 µM and 3.28 µM | 
7 | Nc1ccn(C2OC(CO)C(O)C2(F)F)c(=O)n1 (stereo unspecified) | 108% and 76.6% and 99.2% | 91.1% and 89.1% and 80.1% | 75.9% and 48.8% and 61.6% | 51.4% and 43.7% and 46.9% | 45.5% and 50.5% and 62.4% | 54.1% and 54.5% and 59.6% |  | 
8 | Nc1ncn(C2CC(O)C(CO)O2)c(=O)n1 (stereo unspecified) | 89.7% and 85.1% and 97% | 94.7% and 85.4% and 97.1% | 92.5% and 90.6% and 99.1% | 86.9% and 92.4% and 92.5% |  |  | > 1 µM | viability, T/C (compound 0.00316 µM): 100% and 95.5% and 94.7%; viability, T/C (compound 0.01 µM): 99.2% and 102% and 92.5%
9 | Nc1ncn(C2CC(O)C(CO)S2)c(=O)n1 (stereo unspecified) |  |  |  |  |  |  | > 0.3 µM | viability, T/C (compound 0.000949 µM): 94.5% and 95.6% and 104%; viability, T/C (compound 0.003 µM): 108% and 104% and 118%; viability, T/C (compound 0.00949 µM): 102% and 112% and 110%; viability, T/C (compound 0.03 µM): 107% and 101% and 116%; viability, T/C (compound 0.0949 µM): 103% and 105% and 100%; viability, T/C (compound 0.3 µM): 98.6% and 109% and 104%
10 | O=C(C=Cc1cccc(S(=O)(=O)Nc2ccccc2)c1)NO | 98.2% and 96.2% and 89.6% | 112% and 105% and 102% | 97.2% and 109% and 111% | 115% (2×) and 109% | 95.7% and 101% and 82.7% | 19.4% and 12.2% and 13.2% | 6.32 µM and 6.14 µM and 5.43 µM | 
11 | O=C(C=Cn1cnc(-c2cc(C(F)(F)F)cc(C(F)(F)F)c2)n1)NNc1cnccn1 |  |  |  |  |  |  | > 3 µM | viability, T/C (compound 0.00949 µM): 101% and 111% and 105%; viability, T/C (compound 0.03 µM): 104% and 93.9% and 109%; viability, T/C (compound 0.0949 µM): 105% and 106% and 103%; viability, T/C (compound 0.3 µM): 108% and 96.7% and 90.6%; viability, T/C (compound 0.949 µM): 81.6% and 74.5% and 86%; viability, T/C (compound 3 µM): 60.7% and 70.6% and 74.3%
12 | O=C(c1cc(Cc2n[nH]c(=O)c3ccccc23)ccc1F)N1CCN(C(=O)C2CC2)CC1 | 103% and 99.9% and 91.7% | 97.6% and 103% and 104% | 97.3% and 100% and 107% | 108% and 113% and 102% | 108% and 92.6% and 99.9% | 93.2% and 85.1% and 76.2% | > 10 µM | 

Reference: PubChem BioAssay AID1918993 (Molecular Pharmacology Branch, DTP, NCI, 2023)
